Data published in the supplement of paper PMC11451515.

Tested on: P12-Ichikawa
Test: cell viability relative to DMSO control; higher = less cytotoxic
Conditions: 48 h
Method in brief: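 NOMO1 or SEM cells were plated at 500 cells/well and P12-Ichikawa cells at 1000 cells/well in 1536-well plates (5 μl), after each leukemia line had been adapted for at least four passages in each medium. Pin dosing delivered library compounds in DMSO at 11 threefold concentrations, 47 μM to 0.79 nM. CellTiter-Glo One luminescence was read after 48 h at 37°C. Viability is reported as a per-plate percentage of DMSO wells, with cell-free wells as background.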

[1] = HPLM + 10% dialyzed FBS, 0.00234 µM
[2] = HPLM + 10% dialyzed FBS, 0.00702 µM
[3] = HPLM + 10% dialyzed FBS, 0.0211 µM
[4] = HPLM + 10% dialyzed FBS, 0.0632 µM
[5] = HPLM + 10% dialyzed FBS, 0.19 µM
[6] = HPLM + 10% dialyzed FBS, 0.569 µM
[7] = HPLM + 10% dialyzed FBS, 1.71 µM
[8] = HPLM + 10% dialyzed FBS, 5.12 µM
[9] = HPLM + 10% dialyzed FBS, 15.4 µM
[10] = HPLM + 10% dialyzed FBS, 46.1 µM

| SMILES | cell viability (RPMI 5 mM glucose + 10% FBS, 0.000781 µM) | cell viability (RPMI 5 mM glucose + 10% FBS, 0.00234 µM) | cell viability (RPMI 5 mM glucose + 10% FBS, 0.00702 µM) | cell viability (RPMI 5 mM glucose + 10% FBS, 0.0211 µM) | cell viability (RPMI 5 mM glucose + 10% FBS, 0.0632 µM) | cell viability (RPMI 5 mM glucose + 10% FBS, 0.19 µM) | cell viability (RPMI 5 mM glucose + 10% FBS, 0.569 µM) | cell viability (RPMI 5 mM glucose + 10% FBS, 1.71 µM) | cell viability (RPMI 5 mM glucose + 10% FBS, 5.12 µM) | cell viability (RPMI 5 mM glucose + 10% FBS, 15.4 µM) | cell viability (RPMI 5 mM glucose + 10% FBS, 46.1 µM) | cell viability (HPLM + 10% dialyzed FBS, 0.000781 µM) | cell viability [1] | cell viability [2] | cell viability [3] | cell viability [4] | cell viability [5] | cell viability [6] | cell viability [7] | cell viability [8] | cell viability [9] | cell viability [10] |
| --- | --- | --- | --- | --- | --- | --- | --- | --- | --- | --- | --- | --- | --- | --- | --- | --- | --- | --- | --- | --- | --- | --- |
| CC(C)(C)C1=NC2=C([NH]1)C3=CC=C(F)C=C3C4=C2\C=C/NC4=O | 118% | 133% | 123% | 134% | 123% | 122% | 113% | 108% | 69.7% | 17.8% | 72.1% | – | – | – | – | – | – | – | – | – | – | – |
| Nc1cccc(-c2cc3c(Oc4cccc(O)c4)ncnc3[nH]2)c1 | – | – | – | – | – | – | – | – | – | – | – | 124% | 121% | 123% | 114% | 122% | 114% | 117% | 106% | 105% | 60.5% | 15.1% |
| CN(C)C(=O)COC(=O)Cc1ccc(OC(=O)c2ccc(NC(=N)N)cc2)cc1 | – | – | – | – | – | – | – | – | – | – | – | – | 122% | 126% | 134% | 129% | 135% | 134% | 126% | 107% | 98.4% | 70.5% |
